This is an account of results in patent publication US12115154B2, “Compounds for the modulation of proprotein convertase subtilisin/kexin type 9 (PCSK9)” (SRX Cardio, LLC, priority 2020, dated 2024).

For one data set, the target named is T1, PCSK9 (Homo sapiens, UniProt Q8NBP7).
T1 construct: purchased Cayman Chemical 20631; host or cells: added to HepG2, HuH7, FL83B or shPCSK9 knock-down lines
The data set is described as follows: Biodesy Direct Binding Measurement (second harmonic generation). As to conditions: Biodesy Delta System. An excerpt:
The compounds of the present disclosure may be tested for binding to, inhibition of, and/or modulation of PCSK9 activity according to the following protocols.
Direct binding can be measured using the commercially available Biodesy Delta System (BDS, http://www.biodesy.com/products/; accessed Aug. 1, 2018). The BDS is a laser-based approach that utilizes second harmonic generation from a labeled protein to detect ligand binding, the method of which is covered and described by U.S. Pat. Nos. 9,395,358 and 8,932,822, and has been commercialized by Biodesy Inc. (South San Francisco, Calif.).

Data set [1] relates to Male C57BL/6 mice. The data set is described as follows: In vivo efficacy: serum LDL in high fat diet mice. As to conditions: for reduction in LDL: daily PO 15 mg/kg. The protocol:
(§1) A representative compound (Compound 1041) was tested for oral bioavailability and efficacy in mice. Male C57BL/6 mice were purchased from Taconic Biosciences (Rensselaer, New York) and housed under standard conditions with the exception of being provided a high fat diet (#TD.90221, Envigo, Madison, Wis.) and water ad libitum. Following 4 weeks of diet acclimation the animals were then dosed with compound or vehicle as control specimens. Compound readily dissolved at 1.5 mg/ml in a 1% Tween-80 aqueous solution with 10-15 minutes sonication. This solution was used at the 1.5 mg/ml concentration for oral (PO) dosing or further diluted with sterile saline for intravenous (IV) dosing.
[…] Plasma samples were collected at 0.25, […], 1, 2, 3, 6, 8, 24, and 48 hours while liver specimens were collected at 8, 24, and 48 hours and drug concentration were measured by LC-MS/MS per standard protocols.
Serum lipid levels were measured using commercially available veterinary health testing services provided by IDEXX BioAnalytics (North Grafton, Mass.). Blood specimens were collected from the animals and the resulting serum was frozen and stored at −80° C. until analysis. Specimens were measured using the commercial service's standard procedures for the Rodent Lipid Panel (Test Code #6290).

Data set [2] relates to Male C57BL/6 mice. The data set is described as follows: Liver panel (animal health) in high fat diet mice. The class given is in vivo. The protocol: as §1
To assess animal health following compound exposure, a liver panel (Test Code #60405) was tested by IDEXX BioAnalytics (North Grafton, Mass.). […] Also of note, AST and ALT levels in the liver panel were elevated in the PO vehicle, which is attributed to the high fat diet used in the study (Envigo, #TD.90221).

Data set [3] is described as follows: In vivo PK in mice (IV and PO). As to conditions: male, C57BL/6, mouse, plasma, 3 mg/kg IV versus 15 mg/kg PO, read-out: oral bioavailability (F %). The protocol:
as §1
Test animals received a single dose at 3 mg/kg by IV or 15 mg/kg by PO while control animals received an equal volume of vehicle control by IV or PO, respectively. Plasma samples were collected at 0.25, […], 1, 2, 3, 6, 8, 24, and 48 hours while liver specimens were collected at 8, 24, and 48 hours and drug concentration were measured by LC-MS/MS per standard protocols.
In brief, blood was immediately centrifuged, and the resulting plasma was frozen and stored at −80° C. until analysis. […] Compound concentrations were determined by a liquid chromatography-mass tandem spectrometry (LC-MS/MS) per routine method (Quintana Discovery, Hayward, Calif.) following the standard protocol. […]

Data set [4] is described as follows: Dissolution in dosing solution. As to conditions: 1% Tween-80 aqueous solution, 10-15 minutes sonication. The format is physicochemical. The protocol:
as §1

Setting [5] is: daily 15 mg/kg PO, 72-hour group, versus vehicle control.

T1 sequence (Q8NBP7 153-692): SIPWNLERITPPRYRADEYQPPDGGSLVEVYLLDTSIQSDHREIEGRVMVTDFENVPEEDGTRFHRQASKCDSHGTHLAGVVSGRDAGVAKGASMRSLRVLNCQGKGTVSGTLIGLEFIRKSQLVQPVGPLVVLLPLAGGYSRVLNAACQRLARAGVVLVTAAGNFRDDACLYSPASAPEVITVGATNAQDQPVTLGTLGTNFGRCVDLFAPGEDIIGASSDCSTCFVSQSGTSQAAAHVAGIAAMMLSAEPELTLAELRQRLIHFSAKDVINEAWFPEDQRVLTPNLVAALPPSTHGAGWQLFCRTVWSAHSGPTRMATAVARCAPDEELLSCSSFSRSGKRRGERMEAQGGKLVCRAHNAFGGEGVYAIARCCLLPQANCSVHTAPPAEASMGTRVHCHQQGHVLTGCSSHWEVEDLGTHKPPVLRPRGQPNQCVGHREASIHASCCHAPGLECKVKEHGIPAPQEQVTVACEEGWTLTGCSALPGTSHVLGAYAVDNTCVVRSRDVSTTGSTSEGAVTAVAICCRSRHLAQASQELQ

For the compound `Fc1ccc(-c2ccc(C3CCCN(CC4CC4)C3)cc2)cc1` (stereo not shown) [Compound 1.001, 1-(cyclopropylmethyl)-3-(4′-fluoro-[1,1′-biphenyl]-4-yl)piperidine], the ASHG on PCSK9 is more than 10%.
On to `Cc1cc(-c2ccc(F)cc2)ccc1C1CCCN(C2CCCC2)C1` (stereo not shown) [Compound 1.041, 1-cyclopentyl-3-(4′-fluoro-3-methyl-[1,1′-biphenyl]-4-yl)piperidine], for which, in the data set on Male C57BL/6 mice [1] (at 48 hours (dosed at t=0 and t=24 hours)), the “reduction in LDL” value is recorded as 32%. Besides, the “reduction in LDL” value in the data set with Male C57BL/6 mice [1] (at 72 hours (dosed at t=0, t=24, t=48 hours)) was found to be 50%. Also, the “reduction in LDL relative to IV vehicle control group” value with Male C57BL/6 mice [1] (single 3 mg/kg IV dose, 48 hours after dosing) was 19%. For the same compound, the “reduction in LDL relative to PO vehicle control group” value in the data set with Male C57BL/6 mice [1] (single 15 mg/kg PO dose, 48 hours after dosing) is given as 32%. Moreover, in the data set with Male C57BL/6 mice [2] (setting [5]), the “reduction in ALT levels” value was found to be 77.7% and the “reduction in AST levels” value amounted to 72.1%. Also, the liver panel toxicity entry in the data set on Male C57BL/6 mice [2] (three daily 15 mg/kg PO doses, 72 hours, versus PO vehicle) is given as “no overt toxicity”. In data set [3], the bioavailability (in general, the share of a dose that reaches the circulation, judged against a reference dose that is usually intravenous) worked out at 44%. Also, the concentration readily dissolved in data set [4] is not below 1500 µg/mL.
